Measured values as given in US20190211020A1 (Agency for Science, Technology and Research, priority 2012, published 2019).
Entries after “also recorded” stand apart in the source; their conditions may differ. Read-outs that look alike come from different tables or passages of the source.

What was measured:
[1] = tested on: eIF4E phosphorylation in K562 cells; assay: Western blot of eIF4E phosphorylation in K562 cells; format: cell-based; conditions: various concentrations, 24 h
Description: (§1) K562 cell line was obtained from the ATCC, and grown in RPMI supplemented with 10% FCS, L-glutamine, and penicillin/streptomycin.
(§2) Exponentially growing cells were plated at 2×10^5 cells/ml, and whole cell lysate processed for western blot analysis using antibodies recognizing eIF4E, phospho-eIF4E (Cell signaling Technology),

[2] = tested on: P116.c139 (acute T cell leukemia); assay: Cell cytotoxicity assay (CellTiter-Glo), P116.c139; format: cell-based; conditions: T-cell, cell viability
Description: (§3) Cancer cell lines, MV-4-11 (leukemia), P116.c139 (acute T cell leukemia) and D1.1 (acute T cell leukemia), were purchased from ATCC and cultured according to supplier's recommendations. K562 cells (myelogenous leukemia) over-expressing eIF4E, were also used for the cytotoxicity assay. For cells treated for 48 hours, 5000 cells were seeded in 70 μl of growth medium in black, flat-bottom 96-well plate. For cells treated for six days, 1000 cells were seeded in 70 μl of growth medium in black, flat-bottom 96-well plate. […] 50 μl of the diluted compounds was added to the cells and incubated at 37° C. in 5% CO2. After 48 hours or six days treatment, cell viability was determined by CellTiter-Glo Luminescent Cell Viability Assay (Promega, Madison, Wis.). 120 μl of the reagent was added to the cells and luminescence was measured using Tecan Safire Reader. Data was analysed with Graphpad Prism software and the figures represented indicate the half maximal inhibitory concentration (IC50). Error bars denote standard deviation (SD).

[3] = tested on: eIF4E phosphorylation in cerebellar neurons in brain sections; assay: Immunoblot of phospho-eIF4E in mouse cerebellar brain slices; conditions: 40 μM CGP57380 or 50 nM ETC7168 for 45 mins
Description: For biochemical analyses mice were sacrificed by CO2 inhalation, the cerebellum dissected and rapidly placed in a vibratome chamber and sectioned at 300 μm in cold oxygenated aCSF (in mM: 125 NaCl, 2.5 KCl, 1 MgCl2, 2 CaCl2, 1.25 NaH2PO4, 20 Glucose, 26 NaHCO3, 95% O2/5% CO2). Slices obtained were maintained at 33° C. in oxygenated aCSF and treated with 40 μM CGP57380 or 50 nM ETC7168 for 45 mins and tissues were subsequently snap frozen in liquid nitrogen. Tissues were lysed in 25 mM Tris-HCl, 150 mM NaCl, 1% Triton, 0.2% SDS, 5 mM EDTA, 2 mM DTT, 1 mM NaF, 1 mM Na3VO4 containing protease inhibitor cocktail. The soluble fractions were analyzed by immunoblotting with primary antibodies for 24 hrs at 4° C. followed by detection with secondary antibodies for enhanced chemoluminescent detection. […] Behavioral testing was performed using a well-accepted test for autism that consists of quantitative analysis of ultrasonic vocalizations emitted by male mice exposed to females in estrous^75. […] Prior to testing, the estrous cycle of each female mouse was assessed and only females in estrous were kept for testing. […] Subsequently a female in estrous was introduced in the arena, and ultrasonic vocalizations were recorded for 3 min using the Avisoft system (Avisoft Bioacoustics) with a frequency bandwidth of 30 kHz to 100 kHz. The number and length of ultrasonic vocalizations were quantified. […]

[4] = tested on: MV-4-11, P116.c139 and D1.1 cell lines; assay: Cell cytotoxicity assay, the three test cell lines taken together; format: cell-based; conditions: Homo sapiens, MV4-11; regardless of the treatment duration (48 hours or 6 days)
Description: as §3

BCR-ABL = target: T1, BCR-ABL (Homo sapiens, UniProt P00519); assay: Western blot of CrK1 phosphorylation (BCR-ABL activity) in K562 cells; format: cell-based
T1 construct: host or cells: K562; the other entry of the earlier key: BCR (P11274, Breakpoint cluster region protein)
T1 sequence (P00519 with tags, fused parts or gaps): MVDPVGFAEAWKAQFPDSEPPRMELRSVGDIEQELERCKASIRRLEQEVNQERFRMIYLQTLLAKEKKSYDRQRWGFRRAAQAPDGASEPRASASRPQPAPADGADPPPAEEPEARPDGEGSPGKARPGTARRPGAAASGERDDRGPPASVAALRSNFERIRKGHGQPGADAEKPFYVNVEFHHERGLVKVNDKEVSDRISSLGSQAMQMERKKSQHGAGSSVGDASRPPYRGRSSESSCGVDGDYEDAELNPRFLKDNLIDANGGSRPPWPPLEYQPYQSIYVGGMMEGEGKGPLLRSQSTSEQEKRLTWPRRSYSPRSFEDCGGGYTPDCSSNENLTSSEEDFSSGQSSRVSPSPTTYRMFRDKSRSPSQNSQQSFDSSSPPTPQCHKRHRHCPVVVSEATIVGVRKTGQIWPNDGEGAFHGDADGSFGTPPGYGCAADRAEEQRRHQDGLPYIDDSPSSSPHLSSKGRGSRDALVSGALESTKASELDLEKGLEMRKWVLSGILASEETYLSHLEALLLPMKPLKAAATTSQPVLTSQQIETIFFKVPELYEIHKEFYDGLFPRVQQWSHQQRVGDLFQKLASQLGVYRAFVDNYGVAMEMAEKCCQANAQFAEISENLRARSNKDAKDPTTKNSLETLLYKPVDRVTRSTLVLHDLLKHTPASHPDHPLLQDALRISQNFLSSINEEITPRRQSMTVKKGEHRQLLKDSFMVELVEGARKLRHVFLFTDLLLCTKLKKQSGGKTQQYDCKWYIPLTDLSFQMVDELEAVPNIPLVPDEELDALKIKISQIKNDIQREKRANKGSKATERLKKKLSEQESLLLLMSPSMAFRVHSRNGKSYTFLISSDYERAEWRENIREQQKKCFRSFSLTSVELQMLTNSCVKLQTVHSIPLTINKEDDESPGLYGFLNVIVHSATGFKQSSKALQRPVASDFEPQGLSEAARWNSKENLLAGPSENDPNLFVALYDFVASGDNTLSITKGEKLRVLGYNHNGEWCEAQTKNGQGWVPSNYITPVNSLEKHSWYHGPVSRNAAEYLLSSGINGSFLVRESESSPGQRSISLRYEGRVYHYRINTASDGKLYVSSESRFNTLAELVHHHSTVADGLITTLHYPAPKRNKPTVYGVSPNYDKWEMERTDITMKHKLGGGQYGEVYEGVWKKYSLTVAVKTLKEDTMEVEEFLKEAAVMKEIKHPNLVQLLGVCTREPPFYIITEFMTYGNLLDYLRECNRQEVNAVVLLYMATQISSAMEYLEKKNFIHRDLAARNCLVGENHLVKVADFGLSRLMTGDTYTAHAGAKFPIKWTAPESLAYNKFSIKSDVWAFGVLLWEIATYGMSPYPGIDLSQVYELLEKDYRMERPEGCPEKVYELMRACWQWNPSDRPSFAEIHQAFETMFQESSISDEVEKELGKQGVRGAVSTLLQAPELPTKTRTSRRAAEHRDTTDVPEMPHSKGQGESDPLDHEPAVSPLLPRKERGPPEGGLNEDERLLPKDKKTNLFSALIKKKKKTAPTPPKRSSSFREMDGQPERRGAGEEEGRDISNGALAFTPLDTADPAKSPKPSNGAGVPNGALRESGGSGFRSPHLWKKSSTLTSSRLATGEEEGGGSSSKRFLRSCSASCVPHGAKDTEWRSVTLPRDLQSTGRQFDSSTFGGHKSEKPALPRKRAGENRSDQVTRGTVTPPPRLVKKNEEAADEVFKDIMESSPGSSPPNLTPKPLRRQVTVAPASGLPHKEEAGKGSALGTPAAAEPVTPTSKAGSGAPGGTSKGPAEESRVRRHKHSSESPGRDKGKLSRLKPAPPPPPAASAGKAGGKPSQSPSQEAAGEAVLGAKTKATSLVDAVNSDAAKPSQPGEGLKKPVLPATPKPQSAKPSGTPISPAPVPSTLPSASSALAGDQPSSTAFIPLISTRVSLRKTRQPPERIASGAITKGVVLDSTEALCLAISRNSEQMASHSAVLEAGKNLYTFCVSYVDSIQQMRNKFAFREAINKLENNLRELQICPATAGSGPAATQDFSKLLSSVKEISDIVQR
Description: as §1, §2

[5] = tested on: eIF4G levels in brain sections from Nlgn3 knock-out mice; assay: Immunoblot of eIF4G in brain slices of Nlgn3 knock-out mice; set-up: species or system mouse; conditions: 40 μM CGP57380 or 50 nM ETC7168
Description: For biochemical analyses mice were sacrificed by CO2 inhalation, the cerebellum dissected and rapidly placed in a vibratome chamber and sectioned at 300 μm in cold oxygenated aCSF (in mM: 125 NaCl, 2.5 KCl, 1 MgCl2, 2 CaCl2, 1.25 NaH2PO4, 20 Glucose, 26 NaHCO3, 95% O2/5% CO2). Slices obtained were maintained at 33° C. in oxygenated aCSF and treated with 40 μM CGP57380 or 50 nM ETC7168 for 45 mins and tissues were subsequently snap frozen in liquid nitrogen. Tissues were lysed in 25 mM Tris-HCl, 150 mM NaCl, 1% Triton, 0.2% SDS, 5 mM EDTA, 2 mM DTT, 1 mM NaF, 1 mM Na3VO4 containing protease inhibitor cocktail. The soluble fractions were analyzed by immunoblotting with primary antibodies for 24 hrs at 4° C. followed by detection with secondary antibodies for enhanced chemoluminescent detection. Impact of MNK inhibitors on autism-related behavior was tested in a knock-out mouse model for autism. Nlgn3 knock-out mouse model a human mutation identified in patients with autism^73-74. Compounds were applied in DMSO using intraperitoneal injection in adult male mice (2-4 months of age). Two injections were performed, the first 30 h and a second one 5 h before testing. Behavioral testing was performed using a well-accepted test for autism that consists of quantitative analysis of ultrasonic vocalizations emitted by male mice exposed to females in estrous^75. The apparatus consisted of an arena (40 cm×20 cm) surrounded by 30-cm-high walls made of grey plastic and equipped with a microphone and a video camera. Prior to testing, the estrous cycle of each female mouse was assessed and only females in estrous were kept for testing. Male mice were acclimatized for 3 min in the chamber. Subsequently a female in estrous was introduced in the arena, and ultrasonic vocalizations were recorded for 3 min using the Avisoft system (Avisoft Bioacoustics) with a frequency bandwidth of 30 kHz to 100 kHz. The number and length of ultrasonic vocalizations were quantified. All animal experiments were approved by the cantonal veterinary office Basel-Stadt, Switzerland.

Compound: N#Cc1ccc(-c2cnc3ccc(-c4ccc(C(=O)N5CCOCC5)cc4)nn23)cc1 [Example 62, 4-(6-(4-(morpholine-4-carbonyl)phenyl)imidazo[1,2-b]pyridazin-3-yl)benzonitrile]
- eIF4E phosphorylation in K562 (BC-CML cell line), Western blot [1]: prevent eIF4E phosphorylation; also recorded: decrease in eIF4E phosphorylation
- IC50 ([2]; 144 h, 6 days, read-out: IC50 after 6 days of treatment, P116.c139): 0.3 µM
- IC50 ([2]; 48 hours, read-out: IC50 after 48 hours of treatment, P116.c139): 0.8 µM
- eIF4E phosphorylation in cerebellar brain sections [3]: inhibit eIF4E phosphorylation
- IC50 [4]: ≤ 2 µM
- BCR-ABL activity (phosphorylation of CrK1) in K562 cells (BCR-ABL): decrease in BCR-ABL activity
- eIF4G levels in brain sections from Nlgn3 knock-out mice [5]: elevated eIF4G levels
- eIF4G levels in brain sections from Nlgn3 knock-out mice ([5]; listed as ECT7168): elevation in eIF4G levels
